# Article PMC4413526 (AIDS Research and Therapy, 2014)
# Like-named read-outs stand apart in the source and are kept apart here. Marks after values point to notes of the source that are not given here.
# What was measured:
# [1] = test system: CYP isozymes; details: cited from earlier work
# [2] = HIV-1-infected patients; cited from earlier work
# [3] = test system: HIV; details: cited from earlier work
# [4] = test system: HIV-1 protease and reverse transcriptase; assay: Development of resistance (genotype/phenotype testing, PhenoSense GT); details: two patients (one treatment-experienced, one treatment-naïve) receiving emtricitabine
# [5] = Population pharmacokinetics of darunavir (Bayesian feedback analysis); details: human, in vivo; for AUC(0-t): read-out: Population pharmacokinetic-derived AUC24h, mean (SD)
# [6] = test system: wild-type virus; details: cited from earlier work
# [7] = Pharmacokinetic substudy (intensive sampling, non-compartmental analysis); details: steady state, plasma, substudy n = 60, darunavir 800 mg + cobicistat 150 mg once daily plus N[t]RTIs
# Protocol: The pharmacokinetic substudy included intensive pharmacokinetic sampling over 24 hours and was performed in a subset of patients (target n =48 evaluable) at selected study sites.
# For the whole study population, sparse blood samples for analysis of study drug plasma concentrations were collected over 24 hours at Weeks 2, 4, 8, 12, 16, 24, 36 and 48. For the pharmacokinetic substudy, plasma samples were collected predose, 1, 2, 3, 3.5, 4, 4.5, 5, 6, 8, 10, 12 and 24 hours post-dose at a visit between Weeks 2 and 8.
# For the pharmacokinetic substudy, steady-state pharmacokinetic parameters (Cmax, Cmin and AUC24h) were obtained using non-compartmental analysis (WinNonlin® software version 6.2, Pharsight Corporation, Mountain View, CA, USA). The intensive pharmacokinetic substudy data was used to revise an existing 2-compartment population pharmacokinetic model with first-order absorption.
# [8] = test system: plasma HIV-1 RNA (viral load); details: treatment-naïve patients in ARTEMIS, TLOVR, ITT analysis; cited from earlier work
compound,measurement,setting,value
"CC(C)c1nc(CN(C)C(=O)N[C@@H](CCN2CCOCC2)C(=O)N[C@H](CC[C@H](Cc2ccccc2)NC(=O)OCc2cncs2)Cc2ccccc2)cs1 [Cobicistat, cobicistat]",Induction of CYP isozymes,[1],does not induce CYP isozymes
same,"AUCtau, historical data",[2],8.3 µg·h/mL
same,"Cmax, historical data",[2],1100 ng/mL
same,Antiviral activity,[3],no antiviral activity
"Nc1nc(=O)n([C@@H]2CS[C@H](CO)O2)cc1F [Emtricitabine, emtricitabine]",Phenotypic resistance associated with emerging M184V N[t]RTI RAM,[4],associated with phenotypic resistance
"CC(C)CN(C[C@@H](O)[C@H](Cc1ccccc1)NC(=O)O[C@H]1CO[C@H]2OCC[C@H]21)S(=O)(=O)c1ccc(N)cc1 [Darunavir, darunavir]",AUC(0-t),"[5]; 17 treatment-experienced patients, with cobicistat",120 µg·h/mL
same,concentration at 0 h,"[5]; 17 treatment-experienced patients, with cobicistat, read-out: Population pharmacokinetic-derived C0h, mean (SD)",2920 ng/mL
same,AUC(0-t),"[5]; 281 treatment-naïve patients, with cobicistat",101 µg·h/mL
same,concentration at 0 h,"[5]; 281 treatment-naïve patients, with cobicistat, read-out: Population pharmacokinetic-derived C0h, mean (SD)",2100 ng/mL
same,AUC(0-t),"[5]; Week 48, overall n = 298, with cobicistat",102 µg·h/mL
same,concentration at 0 h,"[5]; Week 48, overall n = 298, with cobicistat, read-out: Population pharmacokinetic-derived trough plasma concentration (C0h), mean (SD)",2150 ng/mL
same,protein-binding adjusted 50% effective concentration,[6],55 ng/mL
same,Ctau [mean (SD)],[7],1311 (969)* ng/ml
Nc1ccn([C@@H]2CS[C@H](CO)O2)c(=O)n1 [lamivudine],Phenotypic resistance associated with emerging M184V N[t]RTI RAM,[4],associated with phenotypic resistance
darunavir/ritonavir,Week 48 virologic response rate,[8],84%
